Experimental data published in ChEMBL document CHEMBL1949550, “Pre-microRNA binding aminoglycosides and antitumor drugs as inhibitors of Dicer catalyzed microRNA processing” (Bioorg Med Chem Lett, 2012).
Active and inactive are the calls of the source. No cut-off for these calls is given here. *1 amine or outer side, *2 acyl side, *3 side chain or, on linkers, in order; H or OH if unused. Where a SMILES comes first, the peptide text is derived from it. Bridges are numbered along the chain shown (N, C = ends). Roman numbers before positions name the chains, in order. [ ]: non-standard residue; d: D form. Actinocin(9to1) = Cc1c2oc3c(C)ccc(C(=O)[*:1])c3nc-2c(C(=O)[*:2])c(N)c1=O; NMeV = CN[C@H](C(=O)O)C(C)C; Sar = CNCC(=O)O

How the values were obtained:
Nucleic Acid [1] = assay: Displacement of ethidium bromide from human pre-hsa-mir-155 miRNA after 30 mins; assay type: nucleic-acid assay
[2] = Aqueous solubility of the compound; assay type: physicochemical; conditions: buffer
Nucleic Acid [3] = assay: Binding affinity to human pre-hsa-mir-155 miRNA assessed as inhibition of dicer-catalysed (33P)-labelled pre-miRNA processing at 1 mM after 1 hr by PAGE analysis; assay type: nucleic-acid assay; conditions: for residual activity: values are per cent of control
Nucleic Acid [4] = assay: Binding affinity to human pre-hsa-mir-155 miRNA assessed as increase in fluorescence after 30 mins by fluorimetry; assay type: nucleic-acid assay
Nucleic Acid [5] = assay: Binding affinity to human pre-hsa-mir-155 miRNA assessed as melting temperature at 10 uM (reference value: 48 degC); assay type: nucleic-acid assay
Nucleic Acid [6] = assay: Binding affinity to human pre-hsa-mir-155 miRNA assessed as melting temperature at 2 uM (reference value: 48 degC); assay type: nucleic-acid assay
Nucleic Acid [7] = assay: Binding affinity to human pre-hsa-mir-155 miRNA assessed as melting temperature at 12 uM (reference value: 48 degC); assay type: nucleic-acid assay
Nucleic Acid [8] = assay: Binding affinity to human pre-hsa-mir-155 miRNA assessed as increase in melting temperature; assay type: nucleic-acid assay
Nucleic Acid [9] = assay: Binding affinity to human pre-hsa-mir-155 miRNA assessed as melting temperature at 112 uM (reference value: 48 degC); assay type: nucleic-acid assay

## CCO.C[C@H]1c2cccc(O)c2C(=O)C2=C(O)[C@]3(O)C(=O)C(C(N)=O)=C(O)[C@@H](N(C)C)[C@@H]3[C@@H](O)[C@@H]21.Cl.O
Nucleic Acid [1]
  Activity: inactive
[2]
  solubility: soluble

## CN1CCN(c2ccc3[nH]c(-c4ccc5[nH]c(-c6ccc(O)cc6)nc5c4)nc3c2)CC1
Nucleic Acid [3]
  residual activity: 40%
Nucleic Acid [4]
  Kd: 14 µM

## Cc1c2c(c(O)c3c(O)cccc13)C(=O)[C@]1(O)C(=O)C(C(N)=O)=C(O)[C@H](N(C)C)[C@@H]1C2.Cl
Nucleic Acid [1]
  Activity: inactive
[2]
  solubility: soluble

## Cc1c2c(c(O)c3c(O)ccc(Cl)c13)C(=O)[C@]1(O)C(=O)C(C(N)=O)=C(O)[C@H](N(C)C)[C@@H]1C2.Cl
Nucleic Acid [1]
  Activity: inactive
[2]
  solubility: soluble

## CCN(CC)CCCC(C)Nc1c2ccc(Cl)cc2nc2ccc(OC)cc12 (stereo unspecified)
Nucleic Acid [3]
  inhibition: inactive

## CN(C)[C@@H]1C(O)=C(C(N)=O)C(=O)[C@@]2(O)C(O)=C3C(=O)c4c(O)cccc4[C@@](C)(O)[C@H]3C[C@@H]12
Nucleic Acid [1]
  Activity: inactive

## CN(C)[C@H]1C(O)=C(C(N)=O)C(=O)[C@@]2(O)C(O)=C3C(=O)c4c(O)ccc(Cl)c4[C@@](C)(O)[C@H]3C[C@@H]12
Nucleic Acid [1]
  Activity: inactive

## CN(C)[C@H]1C(O)=C(C(N)=O)C(=O)[C@@]2(O)C(O)=C3C(=O)c4c(O)cccc4[C@@](C)(O)[C@H]3C[C@@H]12
Nucleic Acid [1]
  Activity: inactive

## CN(C)c1ccc(O)c2c1C[C@H]1C[C@H]3[C@H](N(C)C)C(O)=C(C(N)=O)C(=O)[C@@]3(O)C(O)=C1C2=O
Nucleic Acid [1]
  Activity: inactive

## CN[C@@H]1[C@@H](O[C@H]2O[C@H](CO)[C@@H](N)[C@H](O)[C@H]2O)OC2C[C@@H](N)[C@@H](O[C@H]3[C@H](O)[C@@H](O)[C@H](N)C[C@@H]3N)OC2[C@@H]1O (stereo partly specified)
Nucleic Acid [3]
  residual activity: 10%

## CN[C@H](CC(C)C)C(=O)N[C@H]1C(=O)N[C@@H](CC(N)=O)C(=O)N[C@H]2C(=O)N[C@H]3C(=O)N[C@H](C(=O)N[C@H](C(=O)O)c4cc(O)cc(O)c4-c4cc3ccc4O)[C@H](O)c3ccc(c(Cl)c3)Oc3cc2cc(c3O[C@@H]2O[C@H](CO)[C@@H](O)[C@H](O)[C@H]2O[C@H]2C[C@](C)(N)[C@H](O)[C@H](C)O2)Oc2ccc(cc2Cl)[C@H]1O
Nucleic Acid [3]
  inhibition: inactive

## COc1ccc2cc3[n+](cc2c1OC)CCc1cc2c(cc1-3)OCO2
Nucleic Acid [3]
  inhibition: inactive

## COc1cccc2c1C(=O)c1c(O)c3c(c(O)c1C2=O)C[C@@](O)(C(=O)CO)C[C@@H]3O[C@H]1C[C@H](N)[C@H](O)[C@H](C)O1
Nucleic Acid [3]
  residual activity: 83%

## COc1cccc2c1C(=O)c1c(O)c3c(c(O)c1C2=O)C[C@@](O)(C(C)=O)C[C@@H]3O[C@H]1C[C@H](N)[C@H](O)[C@H](C)O1
Nucleic Acid [3]
  residual activity: 19%

## N=C(N)c1ccc(-c2cc3ccc(C(=N)N)cc3[nH]2)cc1
Nucleic Acid [3]
  residual activity: 100%

## Nc1ccc2cc3ccc(N)cc3nc2c1
Nucleic Acid [3]
  residual activity: 93%

## Cc1c2oc3c(C)ccc(C(=O)N[C@@H]4C(=O)N[C@H](C(C)C)C(=O)N5CCC[C@H]5C(=O)N(C)CC(=O)N(C)[C@@H](C(C)C)C(=O)O[C@@H]4C)c3nc-2c(C(=O)N[C@@H]2C(=O)N[C@H](C(C)C)C(=O)N3CCC[C@H]3C(=O)N(C)CC(=O)N(C)[C@@H](C(C)C)C(=O)O[C@@H]2C)c(N)c1=O (I: T[dV]P[Sar][NMeV] / II: T[dV]P[Sar][NMeV]; ester I:1-I:C, II:1-II:C; linker I:N-II:N via Actinocin(9to1))
Nucleic Acid [3]
  inhibition: inactive

## NC[C@@H]1O[C@H](O[C@H]2[C@@H](O)[C@H](O[C@@H]3[C@@H](O)[C@H](N)C[C@H](N)[C@H]3O[C@H]3O[C@H](CN)[C@@H](O)[C@H](O)[C@H]3N)O[C@@H]2CO)[C@H](N)[C@@H](O)[C@@H]1O (stereo in doubt; form 1)
Nucleic Acid [3]
  residual activity: 10%
Nucleic Acid [5]
  Tm: > 70 °C
Nucleic Acid [6]
  Tm: 50 °C
Nucleic Acid [7]
  Tm: > 70 °C
Nucleic Acid [8]
  Activity: Dose-dependent effect

## NC[C@@H]1O[C@H](O[C@H]2[C@@H](O)[C@H](O[C@@H]3[C@@H](O)[C@H](N)C[C@H](N)[C@H]3O[C@H]3O[C@H](CN)[C@@H](O)[C@H](O)[C@H]3N)O[C@@H]2CO)[C@H](N)[C@@H](O)[C@@H]1O (stereo in doubt; form 1) [FRAMYCETIN]
Nucleic Acid [1]
  Kd: 6 µM

## NC[C@@H]1O[C@H](O[C@H]2[C@@H](O)[C@H](O[C@@H]3[C@@H](O)[C@H](N)C[C@H](N)[C@H]3O[C@H]3O[C@H](CN)[C@@H](O)[C@H](O)[C@H]3N)O[C@@H]2CO)[C@H](N)[C@@H](O)[C@@H]1O (stereo in doubt; form 2)
Nucleic Acid [3]
  residual activity: 10%
Nucleic Acid [6]
  Tm: 48 °C
Nucleic Acid [7]
  Tm: > 70 °C

## NC[C@@H]1O[C@H](O[C@H]2[C@@H](O)[C@H](O[C@@H]3[C@@H](O)[C@H](N)C[C@H](N)[C@H]3O[C@H]3O[C@H](CN)[C@@H](O)[C@H](O)[C@H]3N)O[C@@H]2CO)[C@H](N)[C@@H](O)[C@@H]1O (stereo in doubt; form 2) [FRAMYCETIN]
Nucleic Acid [1]
  Kd: 11 µM

## NCC[C@H](O)C(=O)N[C@@H]1C[C@H](N)[C@@H](O[C@H]2O[C@H](CN)[C@@H](O)[C@H](O)[C@H]2O)[C@H](O)[C@H]1O[C@H]1O[C@H](CO)[C@@H](O)[C@H](N)[C@H]1O [AMIKACIN]
Nucleic Acid [1]
  Kd: > 100 µM

## Cc1c2c(c(O)c3c(O)cccc13)C(=O)[C@]1(O)C(=O)C(C(N)=O)=C(O)[C@@H](N(C)C)[C@@H]1C2.Cl [ANHYDROTETRACYCLINE HYDROCHLORIDE]
Nucleic Acid [1]
  Activity: inactive
[2]
  solubility: soluble

## NC[C@H]1O[C@H](O[C@H]2[C@H](O)[C@@H](O[C@H]3O[C@H](CO)[C@@H](O)[C@H](N)[C@H]3O)[C@H](N)C[C@@H]2N)[C@H](N)[C@@H](O)[C@@H]1O [BEKANAMYCIN]
Nucleic Acid [1]
  Kd: 6 µM

## CN(C)[C@@H]1C(O)=C(C(N)=O)C(=O)[C@@]2(O)C(O)=C3C(=O)c4c(O)ccc(Cl)c4[C@@H](O)[C@H]3C[C@@H]12.Cl [DEMECLOCYCLINE HYDROCHLORIDE]
Nucleic Acid [1]
  Activity: inactive
[2]
  solubility: soluble

## CN[C@@H]1[C@H](O[C@H]2[C@H](O[C@H]3[C@H](O)[C@@H](O)[C@H](NC(=N)N)[C@@H](O)[C@@H]3NC(=N)N)O[C@@H](C)[C@]2(O)CO)O[C@@H](CO)[C@H](O)[C@H]1O [DIHYDROSTREPTOMYCIN]
Nucleic Acid [1]
  Kd: > 100 µM

## CC[n+]1c(-c2ccccc2)c2cc(N)ccc2c2ccc(N)cc21 [HOMIDIUM BROMIDE]
Nucleic Acid [4]
  Kd: 5 µM

## NC[C@@H]1O[C@@H](O[C@H]2[C@H](O)[C@@H](O[C@H]3O[C@H](CO)[C@@H](O)[C@H](N)[C@H]3O)[C@H](N)C[C@@H]2N)[C@@H](O)[C@H](O)[C@H]1O [KANAMYCIN A]
Nucleic Acid [9]
  Tm: > 70 °C
Nucleic Acid [1]
  Kd: 141 µM
Nucleic Acid [6]
  Tm: 55 °C
Nucleic Acid [7]
  Tm: 64 °C
Nucleic Acid [8]
  Activity: Dose-dependent effect

## C=C1c2cccc(O)c2C(=O)C2=C(O)[C@]3(O)C(=O)C(C(N)=O)=C(O)[C@@H](N(C)C)[C@@H]3[C@@H](O)[C@H]12.Cl [METHACYCLINE HYDROCHLORIDE]
Nucleic Acid [1]
  Activity: inactive
[2]
  solubility: soluble

## CCN[C@@H]1C[C@H](N)[C@@H](O[C@H]2OC(CN)=CC[C@H]2N)[C@H](O)[C@H]1O[C@H]1OC[C@](C)(O)[C@H](NC)[C@H]1O [NETILMICIN]
Nucleic Acid [1]
  Kd: > 100 µM

## CN[C@@H]1[C@H](O)[C@H](NC)[C@H]2O[C@@]3(O)C(=O)C[C@@H](C)O[C@H]3O[C@@H]2[C@H]1O [SPECTINOMYCIN]
Nucleic Acid [1]
  Kd: > 100 µM

## NC[C@H]1O[C@H](O[C@H]2[C@H](O)[C@@H](O[C@H]3O[C@H](CO)[C@@H](O)[C@H](N)[C@H]3O)[C@H](N)C[C@@H]2N)[C@H](N)C[C@@H]1O [TOBRAMYCIN]
Nucleic Acid [1]
  Kd: > 100 µM

## BLEOMYCIN
Nucleic Acid [3]
  inhibition: inactive

## GENTAMICIN
Nucleic Acid [1]
  Kd: > 100 µM
